Experimental data from publication PMC8587043, “An Investigation into the Interaction between Double Hydroxide-Based Antioxidant Benzophenone Derivatives and Cyclooxygenase 2” (Molecules, 2021).

What was measured:
EA.hy926 cells = assay: Protective effect against H2O2-induced oxidative damage, MTT assay; assay type: cell-based, human; settings: for EC50: Homo sapiens, EA.hy 926, 4 h, protection against H2O2-induced damage (400 µmol·L^−1, 4 h), n = 3, mean ± SD; for protection rate compared with positive controls (fenofibrate and quereetin): statistical comparison
Method: Hydrogen peroxide (H2O2), a small molecule and functions as oxidative stress and a second messenger which contributes to cell damage or death, could directly induce inflammation in several cell lines. H2O2-induced cell damage is a commonly used model for antioxidant activity evaluation. […] Thus, the concentration of 400 µmol·L^−1 at 4 h was chosen as the model.
Compound SC2 stock solutions were prepared in DMSO. The stock solutions were diluted with FBS free DMEM to different target concentrations (DMSO concentrations ≤ 0.5% v:v). Cells (100 μL, 2 × 10^5 cells∙mL^−1) were seeded on 96-well plates and cultured for 24 h. The medium was then replaced with fresh media containing H2O2 with different concentrations (0, 100, 200, 300, 400, 500, and 600 μmol·L^−1 in FBS free DMEM) and compound SC2 (50, 40, 30, 20, 10 µmol·L^−1), which were transferred to the incubator and cultured for additional time (2, 4, and 6 h). The medium was then replaced with 100 μL of FBS free DMEM and MTT (10 μL, 5 mg·mL^−1 in PBS) and after 4 h the medium was replaced with DMSO (100 μL). A microplate reader (SpectraMaxPlus384, Molecular Devices, United States) was used to record the absorbance at 490 nm for each well of the plates. Cell viability was measured via MTT assay. Survival rate (%) = (Asample group/Acontrol group) × 100%.
Cells (100 μL, 2 × 10^5 cells·mL^−1) were seeded in 96-well plates for 24 h. Cells were treated with different groups and cell viability was measured via MTT assay. The protection rates to oxidative damage were determined and EC50 values were calculated. The protection rates to cells were calculated using the following formula: Protection rate (%) = (Apretreatment group − Amodel group)/(Acontrol group − Amodel group) × 100%.

COX2 = biological target: T1, COX2 (Homo sapiens, UniProt P35354); assay: Fluorescence quenching of COX2 (Stern-Volmer, double logarithm, thermodynamic parameters); assay type: binding; settings: for Kq (bimolecular quenching constant): Kq = Ksv/τ0
T1 construct: purchased Sino Biological Co. (Beijing, China)
T1 sequence (P35354 18-604): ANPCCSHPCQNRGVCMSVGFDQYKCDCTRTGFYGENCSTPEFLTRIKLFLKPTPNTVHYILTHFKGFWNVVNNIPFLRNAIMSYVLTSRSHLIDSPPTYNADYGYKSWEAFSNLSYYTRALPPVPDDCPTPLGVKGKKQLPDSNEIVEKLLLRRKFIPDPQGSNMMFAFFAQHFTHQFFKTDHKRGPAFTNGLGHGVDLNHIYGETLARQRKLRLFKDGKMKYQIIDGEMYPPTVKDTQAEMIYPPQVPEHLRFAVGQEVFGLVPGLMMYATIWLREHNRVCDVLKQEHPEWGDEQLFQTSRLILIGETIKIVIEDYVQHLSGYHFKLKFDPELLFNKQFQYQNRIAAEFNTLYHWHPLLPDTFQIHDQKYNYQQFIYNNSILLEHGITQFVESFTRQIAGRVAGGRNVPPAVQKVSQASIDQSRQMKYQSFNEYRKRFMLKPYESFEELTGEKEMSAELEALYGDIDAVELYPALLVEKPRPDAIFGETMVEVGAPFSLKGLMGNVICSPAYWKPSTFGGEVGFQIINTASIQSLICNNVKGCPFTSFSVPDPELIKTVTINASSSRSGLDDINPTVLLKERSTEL
Text: The emitted fluorescence spectra of COX2 solution (6.0 × 10^−8 mol∙L^−1) without and with an increasing concentration of compounds DB2, SC2 or YB2 (7.5 × 10^−6 mol∙L^−1 to 4.5 × 10^−5 mol∙L^−1) at different temperatures are shown in Figure 4a,b, Figure 4c,d or Figure 4e,f, respectively. […] The quenching constant Kq and Stern–Volmer constant Ksv at different temperatures are usually used to identify the quenching mechanisms, static or dynamic. The former is caused by ground-state complex formation, the latter is diffusion. For the static quenching mechanism, the quenching constant decreases with temperature increase. In this part, we calculated the Kq and Ksv values by using a universally accepted Stern–Volmer equation [38]:(1) F0/F=1+Kqτ0[Q]=1+Ksv[Q] where F0 and F are the protein fluorescence intensities in the absence and the presence of quencher (compounds DB2, SC2 or YB2), respectively. Kq = Ksv/ τ0 . τ0 is the fluorescence lifetime of the fluorophore without the quencher ([…]). [Q] is the concentration of quencher. The Stern-Volmer plots of COX2 fluorescence quenching by compounds DB2, SC2 or YB2 are presented in Figure 5a, Figure 5b or Figure 5c, respectively. According to Table 1, the Ksv and Kq values for all three systems (COX2-DB2, COX2-SC2 and COX2-YB2) decreased with increasing temperature. Therefore, we considered that the quenching was static quenching. To further verify that the system was static quenching, dynamic quenching was assumed first.
For the static quenching, we can use the double logarithm equation to obtain the binding constant (KA) and the number of binding sites per protein (n):(2) lgF0−F/F=lgKA+nlg[Q]
There are four main kinds of non-covalent forces between drugs and proteins. These are electrostatic force, hydrogen bonding, hydrophobic force and van der Waals force. The kind of interaction between compounds DB2, SC2 or YB2 and COX2 can be obtained from thermodynamic parameters, including the free energy change (ΔG), enthalpy change (ΔH) and entropy change (ΔS) of the reaction. The three thermodynamic parameters can be obtained according to the published equations [42, 44]:(3) ΔG=−RTlnK (4) lnK2/K1=ΔH(1/T1−1/T2)×1/R (5) ΔG=ΔH−TΔS
The fluorescence intensity of the system was measured with a 1.0 cm quartz cell. COX2 protein was dissolved in PBS for a final concentration of 6.0 × 10^−8 mol∙L^−1. DB2, SC2 or YB2 stock solutions were prepared in singleton at 1.5 × 10^−3 mol∙L^−1 in PBS containing 0.1% DMSO. 2.0 mL COX2 solution was separately titrated by continuing additions of 10 μL compounds DB2, SC2 or YB2 solution). After incubation at 298 K or 310 K, fluorescence quenching spectra were recorded in the region 325-450 nm at a scan rate of 1200 nm∙min^−1. The local environment of Tyr and Trp residues was quite sensitive at 280 nm, so the excitation wavelength was set at this wavelength. Typically, 280 nm is also used to measure the changes in protein tertiary structure. The slit widths of emission and excitation were both fixed at 10 nm. To observe spectra behaviors of Tyr and Trp groups of COX2, the wavelength interval between the excitation and emission wavelengths (Δλ) was set as 15 nm and 60 nm, respectively. Three-dimensional fluorescence spectroscopy was obtained for an excitation range of 200–300 nm and an emission range of 325–400 nm. Appropriate buffer solutions, determined under the same operation conditions, were used as blanks. Each spectrum was recorded three times.

Compound	EC50 (EA.hy926 cells) [µM]	protection rate compared with positive controls (fenofibrate and quereetin) (EA.hy926 cells)	further results
CCCCc1ccc(C(=O)c2cc(O)c(O)cc2Br)cc1 [DB1]	7.08 ± 0.0926	–	–
CCCCc1ccc(C(=O)c2cc(O)c(O)cc2Cl)cc1 [DC1]	3.31 ± 0.242	–	–
CCCCc1ccc(C(=O)c2c(Cl)cc(O)c(O)c2O)cc1 [DC2]	1.55 ± 0.924	no significant difference	–
O=c1c(O)c(-c2ccc(O)c(O)c2)oc2cc(O)cc(O)c12 [Quereetin, quercetin, reference compound]	7.98 ± 1.23	–	–
CC(C)(C)c1ccc(C(=O)c2cc(O)c(O)cc2Br)cc1 [SB1]	0.012 ± 0.00481	no significant difference	–
CC(C)(C)c1ccc(C(=O)c2c(Br)cc(O)c(O)c2O)cc1 [SB2]	0.0252 ± 0.0122	no significant difference	–
CC(C)(C)c1ccc(C(=O)c2cc(O)c(O)cc2Cl)cc1 [SC1]	1.91 ± 0.521	no significant difference	–
CC(C)Cc1ccc(C(=O)c2cc(O)c(O)cc2Br)cc1 [YB1]	8.51 ± 0.957	–	–
CC(C)Cc1ccc(C(=O)c2cc(O)c(O)cc2Cl)cc1 [YC1]	1.91 ± 0.823	–	–
CC(C)Cc1ccc(C(=O)c2c(Cl)cc(O)c(O)c2O)cc1 [YC2]	3.85 ± 0.925	no significant difference	–
[3-isobutyl-4-methoxy-5 -(pyrrolidine-1-carbonyl)-phenyl]-butyric acid ethyl ester [Control compound, reference compound]	–	–	KA (binding constant) (COX2; 298 K): 4436.3 ± 718.24 L/mol; Ksv (Stern-Volmer quenching constant) (COX2; 298 K): 1.71 ± 0.297 ×10^4 L∙mol^−1; n (number of binding sites per protein) (COX2; 298 K): 0.947 ± 0.116; Kq (bimolecular quenching constant) (COX2; 298 K): 1.71 ± 0.297 ×10^12 L∙mol^−1∙S^−1; KA (binding constant) (COX2; 310 K): 1417.0 ± 92.261 L/mol; Ksv (Stern-Volmer quenching constant) (COX2; 310 K): 1.05 ± 0.157 ×10^4 L∙mol^−1; n (number of binding sites per protein) (COX2; 310 K): 0.785 ± 0.0195; Kq (bimolecular quenching constant) (COX2; 310 K): 1.05 ± 0.157 ×10^12 L∙mol^−1∙S^−1
